From US10221161B2, “Inhibitors of plasma kallikrein” (Kalvista Pharmaceuticals Limited, priority 2013, dated 2019)

Columns and labels:
Human plasma kallikrein = Human plasma kallikrein (Homo sapiens (Human), UniProt P03952); assay: Determination of the IC50 for plasma kallikrein (fluorogenic substrate H-DPro-Phe-Arg-AFC); type: biochemical; conditions: 37° C., read-out: IC50 (human PKal)
Description: Determination of the IC50 Plasma Kallikrein Plasma kallikrein inhibitory activity in vitro was determined using standard published methods (see e.g. Johansen et al., Int. J. Tiss. […] Shori et al., Biochem. Pharmacol., 1992, 43, 1209; Stürzebecher et al., Biol. Chem. Hoppe-Seyler, 1992, 373, 1025). Human plasma kallikrein (Protogen) was incubated at 37° C. with the fluorogenic substrate […] and various concentrations of the test compound.

Human KLK1 = Human KLK1 (Homo sapiens (Human), UniProt P06870); assay: Determination of the IC50 for KLK1 (fluorogenic substrate H-DVal-Leu-Arg-AFC); type: biochemical; conditions: human KLK1, 37° C.
Description: Selected compounds were further screened for inhibitory activity against the related enzyme KLK1. The ability of the compounds of formula (I) to inhibit KLK1 may be determined using the following biological assay:
Determination of the IC50 for KLK1
KLK1 inhibitory activity in vitro was determined using standard published methods (see e.g. Johansen et al., Int. J. Tiss. Reac. 1986, 8, 185; Shori et al., Biochem. Pharmacol., 1992, 43, 1209; Stürzebecher et al., Biol. Chem. Hoppe-Seyler, 1992, 373, 1025). Human KLK1 (Callbiochem) was incubated at 37° C. with the fluorogenic substrate H-DVal-Leu-Arg-AFC and various concentrations of the test compound. Residual enzyme activity (initial rate of reaction) was determined by measuring the change in optical absorbance at 410 nm and the IC50 value for the test compound was determined.

Chain of Human KLK1 (P06870 25-262): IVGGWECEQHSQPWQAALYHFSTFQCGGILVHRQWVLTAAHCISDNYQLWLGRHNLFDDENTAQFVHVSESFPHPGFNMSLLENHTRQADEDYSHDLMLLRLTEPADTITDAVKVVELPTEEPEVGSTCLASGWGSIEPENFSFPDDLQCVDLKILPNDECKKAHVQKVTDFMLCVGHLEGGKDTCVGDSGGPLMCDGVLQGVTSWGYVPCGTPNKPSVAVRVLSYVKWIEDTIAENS
Chain of Human plasma kallikrein (P03952 391-638 limits assumed): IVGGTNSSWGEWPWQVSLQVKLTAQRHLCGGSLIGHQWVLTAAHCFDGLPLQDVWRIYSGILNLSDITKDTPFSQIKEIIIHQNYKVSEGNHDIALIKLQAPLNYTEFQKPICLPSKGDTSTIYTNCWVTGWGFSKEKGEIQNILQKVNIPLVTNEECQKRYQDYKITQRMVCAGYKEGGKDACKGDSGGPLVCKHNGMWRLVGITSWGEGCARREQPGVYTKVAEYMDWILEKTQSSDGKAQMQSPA
Chain of Human plasma kallikrein (P03952 20-390 partner limits assumed): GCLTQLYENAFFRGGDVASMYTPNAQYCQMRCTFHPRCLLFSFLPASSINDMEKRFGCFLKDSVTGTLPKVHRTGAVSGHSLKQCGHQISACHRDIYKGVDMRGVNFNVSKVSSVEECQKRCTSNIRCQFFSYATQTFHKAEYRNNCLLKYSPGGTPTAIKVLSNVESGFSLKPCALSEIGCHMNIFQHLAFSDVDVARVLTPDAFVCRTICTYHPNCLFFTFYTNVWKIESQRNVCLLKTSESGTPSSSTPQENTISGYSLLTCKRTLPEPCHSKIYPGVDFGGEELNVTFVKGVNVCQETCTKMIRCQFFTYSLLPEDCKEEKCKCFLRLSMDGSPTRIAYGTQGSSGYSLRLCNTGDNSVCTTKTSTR

| SMILES | IC50 (Human plasma kallikrein) | IC50 (Human KLK1) |
| --- | --- | --- |
| Cc1cnn(Cc2ccc(Cn3cc(C(=O)NCc4ccc5c(N)nccc5c4)ccc3=O)cc2)c1 [Example 15, N-[(1-Aminoisoquinolin-6-yl)methyl]-1-({4-[(4-methylpyrazol-1-yl)methyl]phenyl}methyl)-6-oxopyridine-3-carboxamide] | 0.159 µM | 17.6 µM |
| COc1ncc(C(=O)NCc2ccc3c(N)nccc3c2)cc1Cc1ccc2nc(C)ccc2c1 [Example 18, N-[(1-Aminoisoquinolin-6-yl)methyl]-6-methoxy-5-[(2-methylquinolin-6-yl)methyl]pyridine-3-carboxamide] | 0.702 µM | 1.74 µM |
| Nc1nccc2cc(CNC(=O)c3cncc(Cc4ccnc(N5CCCC5)c4)c3)ccc12 [Example 77, N-[(1-Aminoisoquinolin-6-yl)methyl]-5-{[2-(pyrrolidin-1-yl)pyridin-4-yl]methyl}pyridine-3-carboxamide] | 0.0377 µM | 4.8 µM |
| Nc1nccc2cc(CNC(=O)c3ccc(=O)n(Cc4ccc(Cn5ccccc5=O)cc4)c3)ccc12 [Example 5, N-[(1-Aminoisoquinolin-6-yl)methyl]-6-oxo-1-({4-[(2-oxopyridin-1-yl)methyl]phenyl}methyl)pyridine-3-carboxamide] | 0.0247 µM | 28.9 µM |
| COc1cccc(CN2CCN(Cc3cncc(C(=O)NCc4ccc5c(N)nccc5c4)c3)CC2)c1 [Example 49, N-[(1-Aminoisoquinolin-6-yl)methyl]-5-({4-[(3-methoxyphenyl)methyl]piperazin-1-yl}methyl)pyridine-3-carboxamide] | 6.99 µM | > 10 µM |
| CN1CCN(c2cc(Cc3cncc(C(=O)NCc4ccc5c(N)nccc5c4)c3)ccn2)CC1 [Example 86, N-[(1-Aminoisoquinolin-6-yl)methyl]-5-{[2-(4-methylpiperazin-1-yl)pyridin-4-yl]methyl}pyridine-3-carboxamide] | 0.395 µM | 4.46 µM |
| COc1cccc(Cc2cncc(C(=O)NCc3ccc4c(N)nccc4c3)c2)c1 [Example 25, N-[(1-Aminoisoquinolin-6-yl)methyl]-5-[(3-methoxyphenyl)methyl]pyridine-3-carboxamide] | 2.64 µM | 6.17 µM |
| Nc1nccc2cc(CNC(=O)c3cncc(Cc4ccc(N5CCCC5)nc4)c3)ccc12 [Example 55, N-[(1-Aminoisoquinolin-6-yl)methyl]-5-{[6-(pyrrolidin-1-yl)pyridin-3-yl]methyl}pyridine-3-carboxamide] | 0.103 µM | 4.96 µM |
| Nc1nccc2cc(CNC(=O)c3cncc(CN4CCN(CC5CCCC5)CC4)c3)ccc12 [Example 43, N-[(1-Aminoisoquinolin-6-yl)methyl]-5-{[4-(cyclopentylmethyl)piperazin-1-yl]methyl}pyridine-3-carboxamide] | 11 µM | 17.9 µM |
| Cc1cnn(Cc2ccc(Cc3cncc(C(=O)NCc4c(C)cc(CN)cc4C)c3)cc2)c1 [Example 94, N-{[4-(Aminomethyl)-2,6-dimethylphenyl]methyl}-5-({4-[(4-methylpyrazol-1-yl)methyl]phenyl}methyl)pyridine-3-carboxamide] | 0.00747 µM | > 40 µM |
| Nc1nccc2cc(CNC(=O)c3cncc(Cc4ccc(-n5cccn5)cc4)c3)ccc12 [Example 27, N-[(1-Aminoisoquinolin-6-yl)methyl]-5-{[4-(pyrazol-1-yl)phenyl]methyl}pyridine-3-carboxamide] | 1.01 µM | 12.1 µM |
| Nc1nccc2cc(CNC(=O)c3cncc(Cc4ccc5ccncc5c4)c3)ccc12 [Example 28, N-[(1-Aminoisoquinolin-6-yl)methyl]-5-(isoquinolin-7-ylmethyl)pyridine-3-carboxamide] | 1.1 µM | 5.9 µM |
| Nc1nccc2cc(CNC(=O)c3cncc(CN4CCN(Cc5ccc(F)cc5)CC4)c3)ccc12 [Example 48, N-[(1-Aminoisoquinolin-6-yl)methyl]-5-({4-[(4-fluorophenyl)methyl]piperazin-1-yl}methyl)pyridine-3-carboxamide] | 21.9 µM | > 40 µM |
| Cc1cnn(Cc2ccc(Cc3cncc(C(=O)NCc4c(C)nc5[nH]ccc(C)c4-5)c3)cc2)c1 [Example 12, N-({2,4-Dimethyl-7H-pyrrolo[2,3-b]pyridin-3-yl}methyl)-5-({4-[(4-methylpyrazol-1-yl)methyl]phenyl}methyl)pyridine-3-carboxamide] | 0.244 µM | 14.9 µM |
| COc1ccc(Cc2cncc(C(=O)NCc3ccc4c(N)nccc4c3)c2)cc1 [Example 26, N-[(1-Aminoisoquinolin-6-yl)methyl]-5-[(4-methoxyphenyl)methyl]pyridine-3-carboxamide] | 0.941 µM | > 40 µM |
| Nc1nccc2cc(CNC(=O)c3cncc(CN4CCN(Cc5cccc(F)c5)CC4)c3)ccc12 [Example 46, N-[(1-Aminoisoquinolin-6-yl)methyl]-5-({4-[(3-fluorophenyl)methl]piperazin-1-yl}methyl)pyridine-3-carboxamide] | 7.51 µM | 29.2 µM |

Further lines, results first:

| IC50 (Human plasma kallikrein) | IC50 (Human KLK1) | SMILES |
| --- | --- | --- |
| 0.417 µM | 6.01 µM | Nc1nccc2cc(CNC(=O)c3cncc(Cc4ccc(N5CCC(O)C5)nc4)c3)ccc12 (stereo not shown) [Example 59, N-[(1-Aminoisoquinolin-6-yl)methyl]-5-{[6-(3-hydroxypyrrolidin-1-yl)pyridin-3-yl]methyl}pyridine-3-carboxamide] |
| 0.255 µM | 8.89 µM | COC1CCN(c2ccc(Cc3cncc(C(=O)NCc4ccc5c(N)nccc5c4)c3)cn2)C1 (stereo not shown) [Example 62, N-[(1-Aminoisoquinolin-6-yl)methyl]-5-{[6-(3-methoxypyrrolidin-1-yl)pyridin-3-yl]methyl}pyridine-3-carboxamide] |
| 10 µM | > 10 µM | Nc1nccc2cc(CNC(=O)c3cncc(CN4CCN(CC(=O)O)CC4)c3)ccc12 [Example 52, {4-[(5-{[(1-Aminoisoquinolin-6-yl)methyl]carbamoyl}pyridin-3-yl)methyl]piperazin-1-yl}acetic acid] |
| 0.306 µM | 3.95 µM | Nc1nccc2cc(CNC(=O)c3cncc(Cc4ccc(N5CCC(CO)C5)nc4)c3)ccc12 (stereo not shown) [Example 71, N-[(1-Aminoisoquinolin-6-yl)methyl]-5-({6-[3-(hydroxymethyl)pyrrolidin-1-yl]pyridin-3-yl}methyl)pyridine-3-carboxamide] |
| 0.137 µM | 6.55 µM | CC1CCN(c2ccc(Cc3cncc(C(=O)NCc4ccc5c(N)nccc5c4)c3)cn2)C1 (stereo not shown) [Example 61, N-[(1-Aminoisoquinolin-6-yl)methyl]-5-{[6-(3-methylpyrrolidin-1-yl)pyridin-3-yl]methyl}pyridine-3-carboxamide] |
| 0.155 µM | 7.14 µM | CC1CCCN1c1cc(Cc2cncc(C(=O)NCc3ccc4c(N)nccc4c3)c2)ccn1 (stereo not shown) [Example 79, N-[(1-Aminoisoquinolin-6-yl)methyl]-5-{[2-(2-methylpyrrolidin-1-yl)pyridin-4-yl]methyl}pyridine-3-carboxamide] |
| 0.153 µM | 6.52 µM | CC1CCCN1c1ccc(Cc2cncc(C(=O)NCc3ccc4c(N)nccc4c3)c2)cn1 (stereo not shown) [Example 58, N-[(1-Aminoisoquinolin-6-yl)methyl]-5-{[6-(2-methylpyrrolidin-1-yl)pyridin-3-yl]methyl}pyridine-3-carboxamide] |
| 0.0831 µM | > 10 µM | CC1(C)CCN(c2ccc(Cc3cncc(C(=O)NCc4ccc5c(N)nccc5c4)c3)cn2)C1 [Example 74, N-[(1-Aminoisoquinolin-6-yl)methyl]-5-{[6-(3,3-dimethylpyrrolidin-1-yl)pyridin-3-yl]methyl}pyridine-3-carboxamide] |
| 0.24 µM | > 40 µM | Nc1nccc2cc(CNC(=O)c3cncc(Cc4ccc(N5CCC(F)(F)C5)nc4)c3)ccc12 [Example 57, N-[(1-Aminoisoquinolin-6-yl)methyl]-5-{[6-(3,3-difluoropyrrolidin-1-yl)pyridin-3-yl]methyl}pyridine-3-carboxamide] |
| 14.6 µM | 10.7 µM | Nc1nccc2cc(CNC(=O)c3cncc(Cc4ccc(F)nc4)c3)ccc12 [Example 54, N-[(1-Aminoisoquinolin-6-yl)methyl]-5-[(6-fluoropyridin-3-yl)methyl]pyridine-3-carboxamide] |
| 0.242 µM | 3.75 µM | Nc1nccc2cc(CNC(=O)c3cncc(Cc4ccnc(N5CCCC5=O)c4)c3)ccc12 [Example 76, N-[(1-Aminoisoquinolin-6-yl)methyl]-5-{[2-(2-oxopyrrolidin-1-yl)pyridin-4-yl]methyl}pyridine-3-carboxamide] |
| 1.02 µM | > 40 µM | COCCOc1ccc(Cc2cncc(C(=O)NCc3ccc4c(N)nccc4c3)c2)cc1 [Example 34, N-[(1-Aminoisoquinolin-6-yl)methyl]-5-{[4-(2-methoxyethoxy)phenyl]methyl}pyridine-3-carboxamide] |
| 1.83 µM | 24.3 µM | COc1ccccc1CN1CCN(Cc2cncc(C(=O)NCc3ccc4c(N)nccc4c3)c2)CC1 [Example 42, N-[(1-Aminoisoquinolin-6-yl)methyl]-5-({4-[(2-methoxyphenyl)methyl]piperazin-1-yl}methyl)pyridine-3-carboxamide] |
